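Grown in 96-well plates, cells were treated for 48 hours with each compound at five concentrations. Insufficient inhibition: endpoint recorded as highest concentration tested. TGI: concentration producing complete growth inhibition.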
Assays:
Test in all cases: inhibition of tumour cell growth, NCI panel, 48 h
M19-MEL melanoma = tested on: M19-MEL melanoma
HCC-2998 colon = tested on: HCC-2998 colon
UACC-62 melanoma = tested on: UACC-62 melanoma
OVCAR-8 ovarian = tested on: OVCAR-8 ovarian
A549 NSCLC = tested on: A549 NSCLC
UO-31 renal = tested on: UO-31 renal
SW-620 colon = tested on: SW-620 colon
EKVX NSCLC = tested on: EKVX NSCLC
SNB-75 CNS = tested on: SNB-75 CNS
SK-MEL-2 melanoma = tested on: SK-MEL-2 melanoma
UACC-257 melanoma = tested on: UACC-257 melanoma
SNB-78 CNS = tested on: SNB-78 CNS
SN12C renal = tested on: SN12C renal
NCI-H23 lung = tested on: NCI-H23 lung
OVCAR-4 ovarian = tested on: OVCAR-4 ovarian
HCT-116 colon = tested on: HCT-116 colon
SNB-19 CNS = tested on: SNB-19 CNS
U251 CNS = tested on: U251 CNS
OVCAR-3 ovarian = tested on: OVCAR-3 ovarian
SF-295 CNS = tested on: SF-295 CNS
M14 melanoma = tested on: M14 melanoma
RXF 393 renal = tested on: RXF 393 renal
HT29 colon = tested on: HT29 colon
DLD-1 colon = tested on: DLD-1 colon
SF-539 CNS = tested on: SF-539 CNS
COLO 205 colon = tested on: COLO 205 colon
HCT-15 colon = tested on: HCT-15 colon
SK-MEL-28 melanoma = tested on: SK-MEL-28 melanoma
MOLT-4 leukemia = tested on: MOLT-4 leukemia
CCRF-CEM leukemia = tested on: CCRF-CEM leukemia
OVCAR-5 ovarian = tested on: OVCAR-5 ovarian
ACHN renal = tested on: ACHN renal
RXF-631 renal = tested on: RXF-631 renal
CAKI-1 renal = tested on: CAKI-1 renal
IGROV1 ovarian = tested on: IGROV1 ovarian
SK-OV-3 ovarian = tested on: SK-OV-3 ovarian
A498 renal = tested on: A498 renal
TK-10 renal = tested on: TK-10 renal
DMS 273 small cell lung = tested on: DMS 273 small cell lung
MALME-3M melanoma = tested on: MALME-3M melanoma
NCI-H460 lung = tested on: NCI-H460 lung
DMS 114 small cell lung = tested on: DMS 114 small cell lung
KM12 colon = tested on: KM12 colon
HOP-92 NSCLC = tested on: HOP-92 NSCLC
SK-MEL-5 melanoma = tested on: SK-MEL-5 melanoma
HOP-18 NSCLC = tested on: HOP-18 NSCLC
HL-60(TB) leukemia = tested on: HL-60(TB) leukemia
LOX IMVI melanoma = tested on: LOX IMVI melanoma
HOP-62 NSCLC = tested on: HOP-62 NSCLC
786-0 renal = tested on: 786-0 renal
NCI-H226 lung = tested on: NCI-H226 lung
SF-268 CNS = tested on: SF-268 CNS
K-562 leukemia = tested on: K-562 leukemia
NCI-H522 lung = tested on: NCI-H522 lung
XF 498 CNS = tested on: XF 498 CNS
SR leukemia = tested on: SR leukemia
LXFL 529 NSCLC = tested on: LXFL 529 NSCLC

SMILES: COC1C(CN[N+](=O)CC2OC3OC(C)(C)OC3C2OC)OC2OC(C)(C)OC21 (configuration not stated)
- TGI (M19-MEL melanoma): > 100 µM
- TGI (HCC-2998 colon): > 100 µM
- TGI (UACC-62 melanoma): > 100 µM
- TGI (OVCAR-8 ovarian): > 100 µM
- TGI (A549 NSCLC): > 100 µM
- TGI (UO-31 renal): > 100 µM
- TGI (SW-620 colon): > 100 µM
- TGI (EKVX NSCLC): > 100 µM
- TGI (SNB-75 CNS): > 100 µM
- TGI (SK-MEL-2 melanoma): > 100 µM
- TGI (UACC-257 melanoma): > 100 µM
- TGI (SNB-78 CNS): > 100 µM
- TGI (SN12C renal): > 100 µM
- TGI (NCI-H23 lung): > 100 µM
- TGI (OVCAR-4 ovarian): > 100 µM
- TGI (HCT-116 colon): > 100 µM
- TGI (SNB-19 CNS): > 100 µM
- TGI (U251 CNS): > 100 µM
- TGI (OVCAR-3 ovarian): > 100 µM
- TGI (SF-295 CNS): > 100 µM
- TGI (M14 melanoma): > 100 µM
- TGI (RXF 393 renal): > 100 µM
- TGI (HT29 colon): > 100 µM
- TGI (DLD-1 colon): > 100 µM
- TGI (SF-539 CNS): > 100 µM
- TGI (COLO 205 colon): > 100 µM
- TGI (HCT-15 colon): > 100 µM
- TGI (SK-MEL-28 melanoma): > 100 µM
- TGI (MOLT-4 leukemia): > 100 µM
- TGI (CCRF-CEM leukemia): > 100 µM
- TGI (OVCAR-5 ovarian): > 100 µM
- TGI (ACHN renal): > 100 µM
- TGI (RXF-631 renal): > 100 µM
- TGI (CAKI-1 renal): > 100 µM
- TGI (IGROV1 ovarian): > 100 µM
- TGI (SK-OV-3 ovarian): > 100 µM
- TGI (A498 renal): > 100 µM
- TGI (TK-10 renal): > 100 µM
- TGI (DMS 273 small cell lung): > 100 µM
- TGI (MALME-3M melanoma): > 100 µM
- TGI (NCI-H460 lung): > 100 µM
- TGI (DMS 114 small cell lung): > 100 µM
- TGI (KM12 colon): > 100 µM
- TGI (HOP-92 NSCLC): > 100 µM
- TGI (SK-MEL-5 melanoma): > 100 µM
- TGI (HOP-18 NSCLC): > 100 µM
- TGI (HL-60(TB) leukemia): > 100 µM
- TGI (LOX IMVI melanoma): > 100 µM
- TGI (HOP-62 NSCLC): > 100 µM
- TGI (786-0 renal): > 100 µM
- TGI (NCI-H226 lung): > 100 µM
- TGI (SF-268 CNS): > 100 µM

SMILES: Cc1ccc(S(=O)(=O)C(CC(=O)N2CCCC2)C(=O)c2ccccc2)cc1 (configuration not stated)
- TGI (HCC-2998 colon): > 100 µM
- TGI (K-562 leukemia): > 100 µM
- TGI (UACC-62 melanoma): > 100 µM
- TGI (OVCAR-8 ovarian): > 100 µM
- TGI (A549 NSCLC): > 100 µM
- TGI (UO-31 renal): > 100 µM
- TGI (SW-620 colon): > 100 µM
- TGI (SNB-75 CNS): > 100 µM
- TGI (UACC-257 melanoma): > 100 µM
- TGI (SNB-78 CNS): > 100 µM
- TGI (SN12C renal): > 100 µM
- TGI (NCI-H23 lung): > 100 µM
- TGI (NCI-H522 lung): > 100 µM
- TGI (OVCAR-4 ovarian): > 100 µM
- TGI (HCT-116 colon): > 100 µM
- TGI (SNB-19 CNS): > 100 µM
- TGI (U251 CNS): > 100 µM
- TGI (XF 498 CNS): > 100 µM
- TGI (OVCAR-3 ovarian): > 100 µM
- TGI (SF-295 CNS): > 100 µM
- TGI (M14 melanoma): > 100 µM
- TGI (RXF 393 renal): > 100 µM
- TGI (HT29 colon): > 100 µM
- TGI (DLD-1 colon): > 100 µM
- TGI (SF-539 CNS): > 100 µM
- TGI (COLO 205 colon): > 100 µM
- TGI (SK-MEL-28 melanoma): > 100 µM
- TGI (MOLT-4 leukemia): > 100 µM
- TGI (CCRF-CEM leukemia): 62.5 µM
- TGI (OVCAR-5 ovarian): > 100 µM
- TGI (ACHN renal): > 100 µM
- TGI (RXF-631 renal): > 100 µM
- TGI (CAKI-1 renal): > 100 µM
- TGI (SR leukemia): > 100 µM
- TGI (IGROV1 ovarian): > 100 µM
- TGI (TK-10 renal): > 100 µM
- TGI (DMS 273 small cell lung): > 100 µM
- TGI (MALME-3M melanoma): > 100 µM
- TGI (NCI-H460 lung): > 100 µM
- TGI (DMS 114 small cell lung): > 100 µM
- TGI (KM12 colon): > 100 µM
- TGI (LXFL 529 NSCLC): > 100 µM
- TGI (HOP-92 NSCLC): > 100 µM
- TGI (SK-MEL-5 melanoma): > 100 µM
- TGI (HOP-18 NSCLC): > 100 µM
- TGI (HL-60(TB) leukemia): 52.7 µM
- TGI (LOX IMVI melanoma): > 100 µM
- TGI (HOP-62 NSCLC): > 100 µM
- TGI (786-0 renal): > 100 µM
- TGI (SF-268 CNS): > 100 µM
